Measured values: patent publication US20230192765A1, “PEPTIDES TARGETING SHP2 AND USES THEREOF” (UNIVERSITÀ DEGLI STUDI DI ROMA "TOR VERGATA", priority 2020, published 2023)
Where two headings read alike, the source gives them in different places. Primed or numbered codes have the meaning given here. [ ]: non-standard residue; d: D form. 5,6‑carboxyfluorescein″ = CF is 5,6 carboxyfluorescein; pY = N[C@@H](Cc1ccc(OP(=O)(O)O)cc1)C(=O)O

Experiments:
[1] = system: zebrafish embryos injected with Shp2a-D61G mRNA; experiment: In vivo zebrafish rescue experiments, Shp2a-D61G embryos
Method: (§1) One cell stage zebrafish embryos were injected with a mixture of 120 ng/µl of mRNA encoding either GFP-2A-Shp2-D61G or GFP-2A-Shp2-wt (as a control), with or without OP, at 0.3 µM, 3 µM and 5 µM concentration. Embryos were selected based on proper GFP expression and imaged at 11 hours post fertilization (hpf) in their lateral position using the Leica M165 FC stereomicroscope. Images were analyzed using ImageJ [Schneider 2012], by measuring the ratio of the major and minor axis from a minimum of 31 embryos. Statistical analysis was performed in GraphPad Prism, using the analysis of variance (ANOVA) complemented by Tukey’s honest significant difference test (Tukey’s HSD). To measure the survival of injected embryos, a minimum of 48 embryos per group were grown up to 4 days post fertilization (dpf) and counted at 1 dpf and 4 dpf. Survival curves were plotted using GraphPad Prism, and the differences between samples were determined using the Log-rank (Mantel-Cox) test.

[2] = assay type: in vitro ADME; settings: human serum, up to 90 minutes, 37° C.
Method: (§2) The peptides were dissolved in DMSO (C=5 mg/mL). In eppendorf tubes, 1 mL of HEPES buffer (C = 25 mM, pH = 7.6) was temperature equilibrated at 37° C. before adding 250 µL of human serum and 20 µL of peptide solution; the reaction was followed for 90 minutes. At fixed intervals, 100 µL of the solution were withdrawn and added to 200 µL of absolute ethanol. These samples were kept on ice for 15 minutes, then centrifuged at 13,000 rpm for 5 minutes; the supernatant solutions were analyzed by HPLC and HPLC-MS with 20-60% B gradient in 20 minutes to follow the reaction. In parallel, samples containing peptide, buffer and ethanol only were also analyzed, too. A degradation resistance test was also conducted in DMEM (Dulbecco’s Modified Eagle Medium). The experimental conditions are similar to those described above; the reaction was followed for 72 hours. The enzymatic degradation resistance tests were followed by HPLC using a 5-50% B gradient in 20 minutes.

[3] = system: zebrafish embryos injected with Shp2a-WT mRNA; experiment: In vivo zebrafish experiments, Shp2a-WT embryos
Method: as §1

[4] = Peptide stability in DMEM; assay type: in vitro ADME; settings: three days
Method: as §2

[5] = system: pathogenic variants of SHP2; settings: literature [Sun 2018; LaRochelle 2018]; cited from earlier work
NIH3T3 cells [6] = experiment: Peptide toxicity in the cell uptake experiments (Sytox); assay type: cell-based; settings: all the concentrations tested
Method: Cell viability in the FACS experiment was determined by using Sytox fluorescence.
(§3) Cells were incubated for different times and then washed, collected and stained with SYTOX blue (1 mM, Invitrogen™) to identify the viable population and the green fluorescence of CFP9W5 was recordered to measure peptide uptake. Data were analysed with Kaluza Analysis Software (Beckman Coulter).

NIH3T3 cells [7] = experiment: Cell uptake experiments (FACS); assay type: cell-based; settings: TAT linked to the C-terminus
Method: Cell uptake experiments were performed on NIH3T3 cells. About 200,000 cells were seeded on six-well plates and cultured in Dulbecco’s modified Eagle’s medium supplemented with 10% heat-inactivated fetal bovine serum (Gibco) and 1 % penicillin-streptomycin, at 37° C. with 5% CO2.
Two different strategies were followed. In a first set of experiments, the fluorescent peptide has been incubated with the cell-penetrating peptide (CPP) Pep-1. A Pep-1 stock solution was prepared by dissolving the peptide in ultrapure water. The fluorescent peptide was diluted in PBS from the DMSO stock solution. The peptides were mixed and incubated for 30 minutes at room temperature in a final volume of 400 µl. The conditions for cell delivery were optimized by investigating different cargo to CPP ratios. The mixture was then added to the cells, washed with PBS, together with 600 µl of serum-free medium (volumes for one well are reported). After one hour, 10% of fetal bovine serum (FBS) was added.
as §3
A second set of measurement was carried out using the TAT-conjugated peptide analog. […]

N-SH2 domain of SHP1 = biological target: T1, N-SH2 domain of SHP1 (Homo sapiens, UniProt P29350); experiment: SH2 domain microarray, SHP1; assay type: binding; settings: peptide 0.5, 5.0, 50 nM
T1 construct: host or cells: E. coli
T1 sequence (P29350 4-100 limits assumed): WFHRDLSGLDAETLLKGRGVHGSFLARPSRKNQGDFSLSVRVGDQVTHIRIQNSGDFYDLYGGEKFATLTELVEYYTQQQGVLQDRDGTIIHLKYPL
Method: (§4) The microarray experiment was conducted by the Protein Array and Analysis Core at the MD Anderson Cancer Center (University of Texas, USA), as previously described [Roth 2019]. Briefly, a library of SH2 domains [Huang 2008] was expressed as GST fusion in E. coli and purified on glutathione-sepharose beads. The domains were spotted onto nitrocellulose-coated glass slides (Oncyte Avid slides, Grace Bio-Labs) using a pin arrayer [Espejo 2002]. Each domain was spotted in duplicate.

N-SH2 domain of SHP2 = biological target: T2, N-SH2 domain of SHP2 (Homo sapiens, UniProt Q06124); experiment: Fluorescence anisotropy direct binding assay, N-SH2 domain; settings: N-SH2 domain; direct binding
T2 construct: constructs of the N-SH2 (residues 2-111), C-SH2 (109-217) and PTP (212-528) domains; His6 (esaHis); made in house; host or cells: E. coli (DE3) Rosetta2
T2 sequence (Q06124 2-111): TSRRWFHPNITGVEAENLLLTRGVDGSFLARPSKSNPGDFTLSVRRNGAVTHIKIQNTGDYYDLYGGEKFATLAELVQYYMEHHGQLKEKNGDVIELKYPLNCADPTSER
Method: Anisotropy measurements were carried out using a Horiba Fluoromax 4 spectrofluorimeter.
For the binding assays, the requested peptide amount (1 nM or 0.1 nM) was diluted in buffer (HEPES 10 mM, NaCl 150 mM, EDTA 1 mM, TCEP 1 mM, fluorescence buffer henceforth) and its anisotropy signal was recorded. The peptide was then titrated with increasing protein amounts, until the anisotropy signal reached a plateau at its maximum value, or up to a protein concentration where protein aggregation and consequent light scattering affected the anisotropy values (usually above 1 µM). The measurements of CF-labeled peptides were carried out using an excitation wavelength of 470 nm and collecting the anisotropy values at an emission wavelength of 520 nm. A 495 nm emission filter was used. For the Cy3-labeled peptides, excitation and emission wavelengths of 520 and 560 nm were used.
The Kd values were obtained fitting the data with the following equation, described in Van der Weert 2011, which avoids the need for the commonly used (but often unjustified) approximation of the concentration of unbound protein with the total concentration:
Here, [P]T and [L]T are the total protein and ligand concentrations, while r, ro and rmax are the anisotropy values at a given protein concentration, in the absence of protein and when the peptide is completely bound, respectively.

[8] = system: protein array of 97 human SH2 domains; experiment: SH2 domain microarray; assay type: binding; settings: peptide 0.5, 5.0, 50 nM
Method: as §4

With `CC[C@H](C)[C@H](NC(=O)[C@H](Cc1ccc(C(F)(F)P(=O)(O)O)cc1)NC(=O)[C@H](CC(N)=O)NC(=O)[C@H](CC(C)C)NC(=O)CNC(C)=O)C(=O)N[C@@H](CC(=O)O)C(=O)N[C@@H](CC(C)C)C(=O)N[C@@H](CC(=O)O)C(=O)N[C@@H](Cc1c[nH]c2ccccc12)C(N)=O` [Peptide P9ND0W5, GLN-F2Pmp-IDLDW] the “rescue of the gastrulation phenotype” value ([1]; 5 µM peptide) was “significant”, the survival of embryos ([1]; co-injection 0.3 µM, 3 µM and 5 µM, counted 1 dpf and 4 dpf) was “significant and dose dependent improvement” and the “degradation (HPLC)” value [2] was “No significant degradation”. For the same compound, the lethality of embryos ([3]; co-injection of 3 µM) was “not affected”, the “embryo shape at 11 hpf” value ([3]; co-injection with 3 µM peptide) was “no impact on their shape” and the “degradation (HPLC)” value [4] was “No significant degradation”.

In the case of `CC1(N)CCN(c2cnc(-c3cccc(Cl)c3Cl)c(N)n2)CC1` [SHP099], the “activity in pathogenic variants of SHP2” value [5] is listed as “significantly impaired activity”.

In the case of “CF-GLN-pY-IDLDW-GRKKRRQRRR ({5,6‑carboxyfluorescein″}-GLN[pY]IDLDWGRKKRRQRRR-NH2) [CF-P9W5-TAT]”, the cell killing (NIH3T3 cells [6]) is reported as “did not cause any cell killing” and the “cell uptake, covalent strategy” value (NIH3T3 cells [7]) is reported as “efficiently obtained”.

For Cy3-GLN-pY-IDLDW [Cy3-P9W5], the “binding to N-SH2 domain of SHP1” value (N-SH2 domain of SHP1) was “negligible”, the Kd (N-SH2 domain of SHP2) was 23 ± 2 nM and the “binding on SH2 domain array” value [8] was “significant binding was observed only with the N-SH2 domain of SHP2”.
